tested on: A549 cells induced by TGF-β1 (lung fibrosis model); experiment: Hydroxyproline content in TGF-β1-induced A549 pulmonary fibrosis cell model; format: cell-based, human; settings: not given
Method: Human non-small cell lung cancer cells A549 were cultured in DMEM medium containing 10% (volume fraction) fetal bovine serum, cultured in a carbon dioxide incubator with a volume fraction of 5% at 37° C., and changed once every other day, depending on cell density. A549 cells in logarithmic growth phase were digested with 0.25% trypsin to prepare a cell suspension, adjusted to a cell concentration of 1×10^9 cells/L, and seeded at a density of 4×10^5 cells/cm2 in a cell culture dish of 90 cm^2. The cells were randomly divided into two groups: (1) control group: cultured in DMEM containing 10% (volume fraction) fetal bovine serum; (2) model group: containing 10% (volume fraction) fetal bovine serum, transforming growth factor (TGF-β1, final concentration 5 μg/L) was cultured in DMEM. The cells were cultured at 37° C. in a volumetric 5% carbon dioxide incubator, and changed every other day, depending on the cell density. Cell morphology was observed daily using an inverted microscope to determine when the model was established. When A549 cells are changed from the cobblestone shape of the original epithelial cells to the long spindle shape of the interstitial cells, the modeling is successfully established.
After 48 hours of addition of the polypeptides, the cells of the control group, the model group, and the administration group were collected for subsequent measurement of molecular markers related to pulmonary fibrosis.
Hydroxyproline accounts for 13.4% of collagen, so the content of hydroxyproline can reflect the accumulation of collagen during pulmonary fibrosis, which in turn reflects the degree of pulmonary fibrosis.
Prepare citric acid buffer: 120 g of sodium citrate, 12 mL of glacial acetic acid, 46 g of citric acid, 34 g of sodium hydroxide, dissolved in distilled water, adjust the pH to 6.0, and then dilute to 1000 mL.
Prepare 0.05 mol/L chloramine T solution: weigh 7.05 g of chloramine T, dissolve in 100 mL of distilled water, then add 150 mL of ethylene glycol, and add 250 mL of citric acid buffer to mix well.
Prepare p-dimethylaminobenzaldehyde: Reagent A: Take 20 mL of absolute ethanol, slowly add 2.74 mL of concentrated sulfuric acid; Reagent B: Take 12.0 g of p-dimethylaminobenzaldehyde, slowly add 40 mL of absolute ethanol. Heat in a water bath to completely dissolve and cool to room temperature, then slowly add the A solution to B and mix well.
Prepare a […] perchloric acid solution: take 27 mL of perchloric acid and dilute to 100 mL with distilled water.
The specific steps are as follows: collect the cells in a 1 mL water solution and lyse the cells using a homogenizer; adjust the pH to neutral, dilute to 3 mL, add activated carbon to centrifuge; take 1 mL supernatant, add 1 mL solution 1 (1 mL citrate buffer and 1 mL 0.05 mol/L chloramine T solution), stand for 10 minutes, add 1 mL of perchloric acid, stand for 5 minutes, add 1 mL of p-dimethylaminobenzaldehyde reagent, keep in 60° C. water bath for 15 minutes; centrifuge at 3500 rpm/min for 10 minutes, take the supernatant to measure the absorbance value at a wavelength of 550 nm.
The test was repeated 3 times independently, and the inhibition rate was calculated as follows: inhibition rate (%)=(1−experimental group absorbance/model group absorbance)×100%.

Row | Substance | effect on content of hydroxyproline in lung fibrosis model cells (FIG. 1-3), in words
1 | Arg-Gly-Asp-Gly-Gly-Gly-Gly-Ile-Val-Arg-Arg-Ala-Asp-Arg-Ala-Ala-Val-Pro-Gly-Gly-Gly-Gly-Pro-(D-Pyr)-(D-Cys)-Bip-Arg-Gly-Glu [Polypeptide IV] | can inhibit the content of hydroxyproline in lung fibrosis model cells
2 | Arg-Gly-Asp-Gly-Gly-Gly-Gly-Pro-(D-Pyr)-(D-Cys)-Bip-Arg-Gly-Glu-Gly-Gly-Gly-Gly-Ile-Val-Arg-Arg-Ala-Asp-Arg-Ala-Ala-Val-Pro [Polypeptide III] | can inhibit the content of hydroxyproline in lung fibrosis model cells
3 | Ile-Val-Arg-Arg-Ala-Asp-Arg-Ala-Ala-Val-Pro-Gly-Gly-Gly-Gly-Arg-Gly-Asp-Gly-Gly-Gly-Gly-Pro-(D-Pyr)-(D-Cys)-Bip-Arg-Gly-Glu [Polypeptide V] | can inhibit the content of hydroxyproline in lung fibrosis model cells

same assay, conditions: 4 uM, 48 hours

Row | Substance | Hydroxyproline Content Inhibition Rate in the Pulmonary Fibrosis Model [%]
4 | Arg-Gly-Asp-Gly-Gly-Gly-Gly-Ile-Val-Arg-Arg-Ala-Asp-Arg-Ala-Ala-Val-Pro-Gly-Gly-Gly-Gly-Pro-(D-Pyr)-(D-Cys)-Bip-Arg-Gly-Glu [Polypeptide IV] | 33.09
5 | Arg-Gly-Asp-Gly-Gly-Gly-Gly-Pro-(D-Pyr)-(D-Cys)-Bip-Arg-Gly-Glu-Gly-Gly-Gly-Gly-Ile-Val-Arg-Arg-Ala-Asp-Arg-Ala-Ala-Val-Pro [Polypeptide III] | 30.66
6 | Ile-Val-Arg-Arg-Ala-Asp-Arg-Ala-Ala-Val-Pro-Gly-Gly-Gly-Gly-Arg-Gly-Asp-Gly-Gly-Gly-Gly-Pro-(D-Pyr)-(D-Cys)-Bip-Arg-Gly-Glu [Polypeptide V] | 34.47

same assay, conditions: 8 uM, 48 hours

Row | Substance | Hydroxyproline Content Inhibition Rate in the Pulmonary Fibrosis Model [%]
7 | Arg-Gly-Asp-Gly-Gly-Gly-Gly-Ile-Val-Arg-Arg-Ala-Asp-Arg-Ala-Ala-Val-Pro-Gly-Gly-Gly-Gly-Pro-(D-Pyr)-(D-Cys)-Bip-Arg-Gly-Glu [Polypeptide IV] | 47.28
8 | Arg-Gly-Asp-Gly-Gly-Gly-Gly-Pro-(D-Pyr)-(D-Cys)-Bip-Arg-Gly-Glu-Gly-Gly-Gly-Gly-Ile-Val-Arg-Arg-Ala-Asp-Arg-Ala-Ala-Val-Pro [Polypeptide III] | 56.21
9 | Ile-Val-Arg-Arg-Ala-Asp-Arg-Ala-Ala-Val-Pro-Gly-Gly-Gly-Gly-Arg-Gly-Asp-Gly-Gly-Gly-Gly-Pro-(D-Pyr)-(D-Cys)-Bip-Arg-Gly-Glu [Polypeptide V] | 49.25

tested on: Adenocarcinoma; experiment: MTT assay, lung cancer tumor cells; format: cell-based, human; set-up: concentration or dose not given beside the values; settings: 48 h, mean ± SD
Method: (§1) The inhibition of the growth of human lung cancer tumor cells by the polypeptide of the present invention was examined by MTT assay. The lung cancer tumor cells were cultured in a 37° C., 5% (volume fraction) CO2 incubator to a density of 90% or more, and collected by trypsinization. The cells were resuspended in the culture medium and counted under a microscope to adjust the cell concentration to 2.0×10^4 cells/mL, the cell suspension was inoculated into a 96-well plate at 100 μL per well, and cultured overnight at 37° C. in a 5% (volume fraction) CO2 incubator. After the cells were completely adhered, the polypeptide of the present invention was added as a drug-administered group, and a culture solution containing no drug was used as a blank control group, and the culture solution was diluted to each predetermined concentration. Each dilution was separately added to a 96-well plate at 100 μL per well and incubated for 48 h at 37° C. in a 5% (volume fraction) CO2 incubator. 20 μL of 5 mg/mL MTT was added to each well of a 96-well plate, and incubation was continued for 4 hours. The medium was aspirated, and the cells were dissolved in 100 μL of DMSO per well. The absorbance was measured by a microplate reader at a detection wavelength of 570 nm and a reference wavelength of 630 nm, and the growth inhibition rate was calculated as follows: tumor growth inhibition rate (%)=(1−administered group absorbance value/unadministered group absorbance value)×100%, and the experiment was repeated 3 times independently. The results obtained by the test were expressed as mean±standard deviation. The results in Table 6 indicate that the polypeptides of the present invention have a good inhibitory effect on proliferation of a variety of human lung cancer tumors (FIG. 5).

Row | Substance | tumor growth inhibition rate, MTT Assay [%]
10 | Arg-Gly-Asp-Gly-Gly-Gly-Gly-Ile-Val-Arg-Arg-Ala-Asp-Arg-Ala-Ala-Val-Pro-Gly-Gly-Gly-Gly-Pro-(D-Pyr)-(D-Cys)-Bip-Arg-Gly-Glu [Polypeptide IV] | 88.65 ± 17.86
11 | Arg-Gly-Asp-Gly-Gly-Gly-Gly-Pro-(D-Pyr)-(D-Cys)-Bip-Arg-Gly-Glu-Gly-Gly-Gly-Gly-Ile-Val-Arg-Arg-Ala-Asp-Arg-Ala-Ala-Val-Pro [Polypeptide III] | 93.25 ± 16.99
12 | Ile-Val-Arg-Arg-Ala-Asp-Arg-Ala-Ala-Val-Pro-Gly-Gly-Gly-Gly-Arg-Gly-Asp-Gly-Gly-Gly-Gly-Pro-(D-Pyr)-(D-Cys)-Bip-Arg-Gly-Glu [Polypeptide V] | 75.52 ± 15.25

tested on: Adenosquamous carcinoma; experiment: MTT assay, lung cancer tumor cells; format: cell-based, human; set-up: concentration or dose not given beside the values; settings: 48 h, mean ± SD
Method: as §1

Row | Substance | tumor growth inhibition rate, MTT Assay [%]
13 | Arg-Gly-Asp-Gly-Gly-Gly-Gly-Ile-Val-Arg-Arg-Ala-Asp-Arg-Ala-Ala-Val-Pro-Gly-Gly-Gly-Gly-Pro-(D-Pyr)-(D-Cys)-Bip-Arg-Gly-Glu [Polypeptide IV] | 60.53 ± 16.36
14 | Arg-Gly-Asp-Gly-Gly-Gly-Gly-Pro-(D-Pyr)-(D-Cys)-Bip-Arg-Gly-Glu-Gly-Gly-Gly-Gly-Ile-Val-Arg-Arg-Ala-Asp-Arg-Ala-Ala-Val-Pro [Polypeptide III] | 63.67 ± 11.60
15 | Ile-Val-Arg-Arg-Ala-Asp-Arg-Ala-Ala-Val-Pro-Gly-Gly-Gly-Gly-Arg-Gly-Asp-Gly-Gly-Gly-Gly-Pro-(D-Pyr)-(D-Cys)-Bip-Arg-Gly-Glu [Polypeptide V] | 51.56 ± 13.97

tested on: Large cell lung cancer; experiment: MTT assay, lung cancer tumor cells; format: cell-based, human; set-up: concentration or dose not given beside the values; settings: 48 h, mean ± SD
Method: as §1

Row | Substance | tumor growth inhibition rate, MTT Assay [%]
16 | Arg-Gly-Asp-Gly-Gly-Gly-Gly-Ile-Val-Arg-Arg-Ala-Asp-Arg-Ala-Ala-Val-Pro-Gly-Gly-Gly-Gly-Pro-(D-Pyr)-(D-Cys)-Bip-Arg-Gly-Glu [Polypeptide IV] | 88.92 ± 19.05
17 | Arg-Gly-Asp-Gly-Gly-Gly-Gly-Pro-(D-Pyr)-(D-Cys)-Bip-Arg-Gly-Glu-Gly-Gly-Gly-Gly-Ile-Val-Arg-Arg-Ala-Asp-Arg-Ala-Ala-Val-Pro [Polypeptide III] | 93.53 ± 17.04
18 | Ile-Val-Arg-Arg-Ala-Asp-Arg-Ala-Ala-Val-Pro-Gly-Gly-Gly-Gly-Arg-Gly-Asp-Gly-Gly-Gly-Gly-Pro-(D-Pyr)-(D-Cys)-Bip-Arg-Gly-Glu [Polypeptide V] | 75.74 ± 16.27

tested on: Non-small cell lung cancer; experiment: MTT assay, lung cancer tumor cells; format: cell-based, human; set-up: concentration or dose not given beside the values; settings: 48 h, mean ± SD
Method: as §1

Row | Substance | tumor growth inhibition rate, MTT Assay [%]
19 | Arg-Gly-Asp-Gly-Gly-Gly-Gly-Ile-Val-Arg-Arg-Ala-Asp-Arg-Ala-Ala-Val-Pro-Gly-Gly-Gly-Gly-Pro-(D-Pyr)-(D-Cys)-Bip-Arg-Gly-Glu [Polypeptide IV] | 93.66 ± 23.44
20 | Arg-Gly-Asp-Gly-Gly-Gly-Gly-Pro-(D-Pyr)-(D-Cys)-Bip-Arg-Gly-Glu-Gly-Gly-Gly-Gly-Ile-Val-Arg-Arg-Ala-Asp-Arg-Ala-Ala-Val-Pro [Polypeptide III] | 91.58 ± 17.95
21 | Ile-Val-Arg-Arg-Ala-Asp-Arg-Ala-Ala-Val-Pro-Gly-Gly-Gly-Gly-Arg-Gly-Asp-Gly-Gly-Gly-Gly-Pro-(D-Pyr)-(D-Cys)-Bip-Arg-Gly-Glu [Polypeptide V] | 79.78 ± 20.01

tested on: Small Cell Lung Cancer; experiment: MTT assay, lung cancer tumor cells; format: cell-based, human; set-up: concentration or dose not given beside the values; settings: 48 h, mean ± SD
Method: as §1

Row | Substance | tumor growth inhibition rate, MTT Assay [%]
22 | Arg-Gly-Asp-Gly-Gly-Gly-Gly-Ile-Val-Arg-Arg-Ala-Asp-Arg-Ala-Ala-Val-Pro-Gly-Gly-Gly-Gly-Pro-(D-Pyr)-(D-Cys)-Bip-Arg-Gly-Glu [Polypeptide IV] | 71.14 ± 17.19
23 | Arg-Gly-Asp-Gly-Gly-Gly-Gly-Pro-(D-Pyr)-(D-Cys)-Bip-Arg-Gly-Glu-Gly-Gly-Gly-Gly-Ile-Val-Arg-Arg-Ala-Asp-Arg-Ala-Ala-Val-Pro [Polypeptide III] | 74.83 ± 13.63
24 | Ile-Val-Arg-Arg-Ala-Asp-Arg-Ala-Ala-Val-Pro-Gly-Gly-Gly-Gly-Arg-Gly-Asp-Gly-Gly-Gly-Gly-Pro-(D-Pyr)-(D-Cys)-Bip-Arg-Gly-Glu [Polypeptide V] | 60.60 ± 14.68

tested on: Squamous cell carcinoma; experiment: MTT assay, lung cancer tumor cells; format: cell-based, human; set-up: concentration or dose not given beside the values; settings: 48 h, mean ± SD
Method: as §1

Row | Substance | tumor growth inhibition rate, MTT Assay [%]
25 | Arg-Gly-Asp-Gly-Gly-Gly-Gly-Ile-Val-Arg-Arg-Ala-Asp-Arg-Ala-Ala-Val-Pro-Gly-Gly-Gly-Gly-Pro-(D-Pyr)-(D-Cys)-Bip-Arg-Gly-Glu [Polypeptide IV] | 67.13 ± 12.69
26 | Arg-Gly-Asp-Gly-Gly-Gly-Gly-Pro-(D-Pyr)-(D-Cys)-Bip-Arg-Gly-Glu-Gly-Gly-Gly-Gly-Ile-Val-Arg-Arg-Ala-Asp-Arg-Ala-Ala-Val-Pro [Polypeptide III] | 70.61 ± 12.86
27 | Ile-Val-Arg-Arg-Ala-Asp-Arg-Ala-Ala-Val-Pro-Gly-Gly-Gly-Gly-Arg-Gly-Asp-Gly-Gly-Gly-Gly-Pro-(D-Pyr)-(D-Cys)-Bip-Arg-Gly-Glu [Polypeptide V] | 57.18 ± 10.83
